Test results from ChEMBL document CHEMBL1123179, “4-Amino-2-(substituted methyl)-2-butenoic acids: substrates and potent inhibitors of gamma-aminobutyric acid aminotransferase” (J Med Chem, 1986).

Biological target: 4-aminobutyrate aminotransferase, mitochondrial (Sus scrofa, UniProt P80147)
Assay: Compound was tested for the inhibitory effect against Gamma-amino-N-butyrate transaminase from pig brain

Sequence of 4-aminobutyrate aminotransferase, mitochondrial (P80147 whole entry): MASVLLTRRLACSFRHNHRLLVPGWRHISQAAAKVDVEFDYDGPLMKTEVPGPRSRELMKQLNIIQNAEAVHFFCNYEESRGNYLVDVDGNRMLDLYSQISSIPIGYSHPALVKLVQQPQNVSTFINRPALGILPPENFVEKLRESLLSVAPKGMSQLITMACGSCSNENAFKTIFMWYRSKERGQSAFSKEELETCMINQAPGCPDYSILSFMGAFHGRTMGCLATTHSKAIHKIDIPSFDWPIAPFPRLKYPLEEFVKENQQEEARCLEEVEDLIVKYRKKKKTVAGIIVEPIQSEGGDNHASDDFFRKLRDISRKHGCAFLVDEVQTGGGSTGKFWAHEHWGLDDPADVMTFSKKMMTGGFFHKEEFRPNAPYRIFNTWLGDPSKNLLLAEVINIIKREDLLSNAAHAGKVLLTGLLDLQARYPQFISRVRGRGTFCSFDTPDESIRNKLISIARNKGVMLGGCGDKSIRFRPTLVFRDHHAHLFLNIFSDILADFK

SMILES	Ki
NC/C=C(\CO)C(=O)O	5 µM
NC/C=C(\CCl)C(=O)O	24 µM
NC/C=C(\CF)C(=O)O	19 µM
